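The compound was tested at five concentrations on cells cultured in 96-well plates, with a 48-hour exposure period. Here, GI50 denotes the concentration required for 50% inhibition of growth.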 Calls of active or inactive are those of the source. Cut-off read from the data, not from the text of the source: active = GI50 up to about 1.1 µM and inactive = higher.
What was measured:
Assay in all cases: NCI-60 cell line screen, 48 h
KM12 = test system: KM12
Malme-3M = test system: Malme-3M
OVCAR-5 = test system: OVCAR-5
SK-OV-3 = test system: SK-OV-3
RXF 393 = test system: RXF 393
UO-31 = test system: UO-31
HCT-15 = test system: HCT-15
COLO 205 = test system: COLO 205
TK-10 = test system: TK-10
HCT-116 = test system: HCT-116
A549 = test system: A549
SF-295 = test system: SF-295
UACC-257 = test system: UACC-257
NCI-H460 = test system: NCI-H460
HT-29 = test system: HT-29
SN12C = test system: SN12C
OVCAR-3 = test system: OVCAR-3
RPMI-8226 = test system: RPMI-8226
SK-MEL-2 = test system: SK-MEL-2
U-251 = test system: U-251
MDA-MB-435 = test system: MDA-MB-435
M14 = test system: M14
EKVX = test system: EKVX
PC-3 = test system: PC-3
SNB-19 = test system: SNB-19
BT-549 = test system: BT-549
HCC 2998 = test system: HCC 2998
A498 = test system: A498
UACC-62 = test system: UACC-62
CCRF-CEM = test system: CCRF-CEM
NCI-H226 = test system: NCI-H226
T47D = test system: T47D
MDA-N = test system: MDA-N
HL-60 = test system: HL-60
SK-MEL-5 = test system: SK-MEL-5
SF-268 = test system: SF-268
HOP-62 = test system: HOP-62
SK-MEL-28 = test system: SK-MEL-28
MDA-MB-231 = test system: MDA-MB-231
ACHN = test system: ACHN
HOP-92 = test system: HOP-92
CAKI-1 = test system: CAKI-1
OVCAR-4 = test system: OVCAR-4
OVCAR-8 = test system: OVCAR-8
K562 = test system: K562
Hs-578T = test system: Hs-578T
NCI/ADR-RES = test system: NCI/ADR-RES
786-0 = test system: 786-0
IGROV-1 = test system: IGROV-1
DU-145 = test system: DU-145
LOX IMVI = test system: LOX IMVI
NCI-H23 = test system: NCI-H23
SW-620 = test system: SW-620
SNB-75 = test system: SNB-75
MCF7 = test system: MCF7
MOLT-4 = test system: MOLT-4

CC(=O)Nc1ccc(C(=O)N[C@@H]2C(=O)N3[C@@H]2SC(C)(C)[C@@H]3C(=O)O)cn1
GI50 (KM12): > 100 µM (inactive)
GI50 (Malme-3M): > 100 µM (inactive)
GI50 (OVCAR-5): > 100 µM (inactive)
GI50 (SK-OV-3): > 100 µM (inactive)
GI50 (RXF 393): > 100 µM (inactive)
GI50 (UO-31): > 100 µM (inactive)
GI50 (HCT-15): > 100 µM
GI50 (COLO 205): > 100 µM (inactive)
GI50 (TK-10): > 100 µM (inactive)
GI50 (HCT-116): > 100 µM (inactive)
GI50 (A549): > 100 µM (inactive)
GI50 (SF-295): > 100 µM (inactive)
GI50 (UACC-257): > 100 µM (inactive)
GI50 (NCI-H460): > 100 µM (inactive)
GI50 (HT-29): > 100 µM (inactive)
GI50 (SN12C): > 100 µM (inactive)
GI50 (OVCAR-3): > 100 µM (inactive)
GI50 (RPMI-8226): > 100 µM (inactive)
GI50 (SK-MEL-2): > 100 µM (inactive)
GI50 (U-251): > 100 µM (inactive)
GI50 (MDA-MB-435): > 100 µM (inactive)
GI50 (M14): > 100 µM (inactive)
GI50 (EKVX): > 100 µM (inactive)
GI50 (PC-3): > 100 µM (inactive)
GI50 (SNB-19): > 100 µM (inactive)
GI50 (BT-549): > 100 µM (inactive)
GI50 (HCC 2998): > 100 µM (inactive)
GI50 (A498): > 100 µM (inactive)
GI50 (UACC-62): > 100 µM (inactive)
GI50 (CCRF-CEM): > 100 µM (inactive)
GI50 (NCI-H226): > 100 µM (inactive)
GI50 (T47D): > 100 µM (inactive)
GI50 (MDA-N): > 100 µM (inactive)
GI50 (HL-60): > 100 µM (inactive)
GI50 (SK-MEL-5): > 100 µM (inactive)
GI50 (SF-268): > 100 µM (inactive)
GI50 (HOP-62): > 100 µM (inactive)
GI50 (SK-MEL-28): > 100 µM (inactive)
GI50 (MDA-MB-231): > 100 µM (inactive)
GI50 (ACHN): > 100 µM (inactive)
GI50 (HOP-92): > 100 µM (inactive)
GI50 (CAKI-1): > 100 µM (inactive)
GI50 (OVCAR-4): > 100 µM (inactive)
GI50 (OVCAR-8): > 100 µM (inactive)
GI50 (K562): > 100 µM (inactive)
GI50 (Hs-578T): > 100 µM (inactive)
GI50 (NCI/ADR-RES): > 100 µM (inactive)
GI50 (786-0): > 100 µM (inactive)
GI50 (IGROV-1): > 100 µM (inactive)
GI50 (DU-145): > 100 µM (inactive)
GI50 (LOX IMVI): > 100 µM (inactive)
GI50 (NCI-H23): > 100 µM (inactive)
GI50 (SW-620): > 100 µM (inactive)
GI50 (SNB-75): > 100 µM (inactive)
GI50 (MCF7): > 100 µM (inactive)
GI50 (MOLT-4): > 100 µM (inactive)
